Numbered stars: 1 amine (or outer) side, 2 acyl side, 3 side chain; on linkers, the order of the positions; unused ones are H or OH. Square brackets hold non-standard residues; d marks the D form. Side chains are listed from the residue outwards. Peptide text beside a SMILES is read from it. * marks the point of attachment. C18 diacid = O=C(O)CCCCCCCCCCCCCCCCC(=O)*; γGlu = O=C(O)[C@H](CCC(=O)[*:2])N[*:1]; AEEA = NCCOCCOCC(=O)O; Aib = CC(C)(N)C(=O)O
Target: T1, Rat GLP-1R (Rattus norvegicus, UniProt P32301)
T1 construct: a plasmid encoding either the glucagon receptor or the GLP-1 receptor from the relevant species; expressed in transfected cells
T1 sequence (P32301 22-463): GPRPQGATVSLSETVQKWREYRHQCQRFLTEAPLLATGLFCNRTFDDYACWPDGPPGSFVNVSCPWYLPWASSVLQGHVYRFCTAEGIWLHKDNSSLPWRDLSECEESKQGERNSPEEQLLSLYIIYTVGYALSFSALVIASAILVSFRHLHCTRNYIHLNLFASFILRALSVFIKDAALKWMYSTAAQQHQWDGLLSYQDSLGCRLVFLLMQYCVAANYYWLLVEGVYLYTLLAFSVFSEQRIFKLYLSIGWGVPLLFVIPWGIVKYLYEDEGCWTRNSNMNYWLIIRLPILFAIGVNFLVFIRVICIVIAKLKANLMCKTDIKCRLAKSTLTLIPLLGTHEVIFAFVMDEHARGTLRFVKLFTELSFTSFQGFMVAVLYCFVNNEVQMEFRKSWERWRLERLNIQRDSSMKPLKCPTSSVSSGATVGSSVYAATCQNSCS
Assay: Receptor potency, CRE-luciferase functional assay in BHK cells
Type: cell-based
Details: Rat receptors, whole BHK cells, 0% plasma, 3 h 37°C, value (95% CI)

- EC50: 2.99 pM
Structure (SMILES): CC(C)C[C@H](NC(=O)[C@H](CC(C)C)NC(=O)[C@H](Cc1c[nH]c2ccccc12)NC(=O)[C@H](CCC(N)=O)NC(=O)[C@@H](NC(=O)[C@H](Cc1ccccc1)NC(=O)[C@H](CCC(=O)O)NC(=O)[C@H](CCCNC(=N)N)NC(=O)[C@H](C)NC(=O)[C@H](C)NC(=O)[C@H](CCCNC(=N)N)NC(=O)[C@H](CO)NC(=O)[C@H](CC(=O)O)NC(=O)[C@H](CC(C)C)NC(=O)[C@H](Cc1ccc(O)cc1)NC(=O)[C@H](CCCCN)NC(=O)[C@H](CO)NC(=O)[C@H](CC(C)C)NC(=O)[C@H](CC(=O)O)NC(=O)[C@H](CO)NC(=O)[C@@H](NC(=O)[C@H](Cc1ccccc1)NC(=O)[C@@H](NC(=O)CNC(=O)[C@H](CCC(=O)O)NC(=O)C(C)(C)NC(=O)[C@@H](N)Cc1c[nH]cn1)[C@@H](C)O)[C@@H](C)O)C(C)C)C(=O)N[C@@H](CC(N)=O)C(=O)N[C@@H](CCCCNC(=O)CC[C@H](NC(=O)CC[C@H](NC(=O)COCCOCCNC(=O)COCCOCCNC(=O)CC[C@H](NC(=O)CCCCCCCCCCCCCCCCC(=O)O)C(=O)O)C(=O)O)C(=O)O)C(N)=O [GLP-1 reference] (H-H[Aib]EGTFTSDLSKYLDSRAAREFVQWLLNK([γGlu-γGlu-AEEA-AEEA-γGlu-C18 diacid])-NH2)

Reference: PMC8896685 (PLoS ONE, 2022)
